The text below walks through data of US5541213A, “Propenoic acid derivatives diazole propenoic acid compounds which have useful pharmaceutical utility” (Eisai Co., Ltd., priority 1993, dated 1996).

For assay [1], the system named is Fisher 344 male rats (glycerol-induced renal trouble model). The assay can be described thus: Activity against glycerol-induced renal trouble model. Format: in vivo, rat. The settings on record: 0.3 mg/5 ml/kg orally 60 minutes before 50% glycerol i.m. 10 ml/kg, blood sampled after about 24 hours. The method, then: Fisher 344 male rats aged 8 weeks and weighing 200 to 230 g were kept without water for 18 hours prior to the use. Thereafter, the test compound was orally administered forcedly to the test group of rats in an amount of 0.3 mg/5 ml/kg, while a solvent [2% Tween 80 solution] to the control group of rats in an amount of 5 ml/kg. After 60 minutes from the administration of the test compound or solvent, a 50% solution of glycerol in physiological saline was intramuscularly administered to each rat through both left and right femoral muscles in an amount of 10 ml of kg. After the completion of the intramuscular administration, the rats were watered. After about 24 hours, the rats were etherized and blood was sampled from each rat. The blood samples thus prepared were each centrifuged to collect serum, which was analyzed for urea nitrogen and creatinine.

Assay [2] relates to Fisher 344 male rats (cisplatin-induced trouble model). The assay can be described thus: Activity against cisplatin-induced gastric trouble model. Format: in vivo, rat. The settings on record: cisplatin 6 mg/5 ml/kg s.c., 1 mg/5 ml/kg orally, repeated over four days, blood sampled on the fifth day. The method, then:
Cisplatin was subcutaneously administered to Fisher 344 male rats aged 7 weeks and weighing 170 to 200 g in an amount of 6 mg/5 ml/kg. Immediately after the administration, the test compound was orally administered forcedly to the test group of rats in an amount of 1 mg/5 ml/kg, while a solvent (2% Tween 80 solution) to the control group of rats in an amount of 5 ml/kg. Six hours after the administration, the administration of the test compound and the solvent to the test group and the control group respectively was conducted in a similar manner to that described above. Thereafter, the same administration was repeated on the next day twice, and on the third and forth days each once. On the fifth day, the rats were etherized and blood was sampled from each rat. The blood samples thus prepared were analyzed for serum urea nitrogen and creatinine.

Assay [3] relates to Fisher male rats. The assay can be described thus: Diuretic activity. Format: in vivo, rat. The settings on record: 1 mg/25 ml/kg orally in 0.4% Tween 80 in physiological saline; urine collected for 2 hours. The procedure: Fisher male rats aged 8 weeks and weighing 190 to 210 g were fasted for 18 hours prior to the use. The test compound was orally administered forcedly to the test group of rats in a state dispersed in a 0.4% solution of Tween 80 in physiological saline in an amount of 1 mg/25 ml/kg, while a 0.4% solution of Tween 80 in physiological saline to the control group of rats in the same amount as that administered to the test group. Immediately after the administration, the rats were put in individual metabolism cages respectively to collect urine from each rat for 2 hours. The urinary volume of each rat was determined and thereafter the urine was examined for uric acid concentration to calculate the amount of uric acid egested. The control group was composed of six rats, while the test group three rats. The amounts of uric acid excreted from the rats of each group were averaged out to determine the increment of the excretion of uric acid based on the averages.

In assay [4] the target is T1, right atrium of Hartley male guinea pigs (heart rate lowering effect of adenosine) (Cavia porcellus, UniProt P47745).
T1 construct: the right atrium was extirpated from the heart; from tissue; host or cells: isolated right atrium of Hartley male guinea pigs
T1 sequence (P47745 1-326): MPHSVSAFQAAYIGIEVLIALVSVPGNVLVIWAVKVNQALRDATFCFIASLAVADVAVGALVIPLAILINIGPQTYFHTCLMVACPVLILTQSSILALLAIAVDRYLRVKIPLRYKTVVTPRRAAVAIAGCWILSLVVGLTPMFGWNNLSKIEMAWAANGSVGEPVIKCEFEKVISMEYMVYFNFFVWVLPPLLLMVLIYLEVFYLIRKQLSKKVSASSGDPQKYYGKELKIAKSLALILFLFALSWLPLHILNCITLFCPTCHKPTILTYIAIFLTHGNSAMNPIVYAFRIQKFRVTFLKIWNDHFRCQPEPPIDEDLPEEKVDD
The assay can be described thus: Adenosine antagonism (heart rate lowering effect of adenosine in isolated right atrium). Format: cell-based. The settings on record: guinea pig right atrium, 37° C., dipyridamole added, 20 minutes with test compound, adenosine added cumulatively; spontaneous heart rate; read-out: pA2 value (adenosine antagonism) (converted). The procedure:
Hartley male guinea pigs weighing 250 to 400 g were beaten to death. The heart was immediately extirpated from each guinea pig and put in the Krebs-Heuseleit solution saturated with a gas mixture comprising 95% of oxygen and 5% of carbon dioxide. Thereafter, the right atrium was extirpated from the heart. The samples thus preparer were each vertically suspended in a Magnus tube (capacity: 6 ml) filled with a nutrient liquid at 37° C. and the same gas mixture as that used above was passed through the tube.
The change in tension was isometrically determined under a load of about 0.5 g and the spontaneous heart rate was measured and recorded with a cardiotachometer by utilizing the signal of the change as a trigger.
After the stabilization of the sample, 10^-5 mol of dipyridamole was added to each Magnus tube. Thereafter, the test compound was added directly to each of the Magnus tubes of the test group in a state dissolved in DMSO, while a solvent (DMSO) to each of the Magnus tubes of the control group in the same amount as that added to each Magnus tube of the test group. The resulting Magnus tubes was allowed to stand for 20 minutes. […]
The EC50 value with respect to the heart rate lowering effect of adenosine was calculated and the adenosine antagonism was represented by pA2 value (-log M).

Molecules are shown by their SMILES.

On to `O=C(/C=C/c1c[nH]nc1-c1cccc(F)c1)NC(Cc1ccccn1)c1cc(Cl)ccn1` (single isomer, unassigned; (+)) [Example 2, (+)-(E)-N-{1-(4-Chloropyridin-2-yl)-2-(pyridin-2-yl)ethyl}-3-{3-(3-fluorophenyl)-1H-pyrazol-4-yl}-2-propenamide], for which the values for the serum creatinine in assay [1] (*P < 0.05 vs control (4.76 ± 0.21)) and in assay [2] (*P < 0.05 vs control (2.15 ± 0.16)) were 3.47 ± 0.30 mg/dL and 1.49 ± 0.04 mg/dL, respectively. In addition, the values for the Serum urea nitrogen in assay [1] (*P < 0.05 vs control (185.4 ± 3.2)) and in assay [2] (*P < 0.05 vs control (93.4 ± 6.5)) were 142.4 ± 10.5 mg/dL and 52.9 ± 2.3 mg/dL, respectively. In addition, the “amount of uric acid excreted (control group taken as 100%)” value in assay [3] was found to be 166%. In addition, in assay [3], the “urinary volume of the test group (control group taken as 100%)” value is 605%. In assay [4], the Kb was 0.0389 nM.
